Assay results: patent US8757784B2, “Ink for ink jet recording and recording method” (Seiko Epson Corporation, priority 2012, dated 2014)

Assay: logP value (octanol/water distribution)
Description: Herein, the “logP value” is an index that represents hydrophobicity of a compound. The logP value represents, in an octanol/water system, in which ratio a solute is distributed in these two layers. In other words, when the logP value of the solute is bigger, the hydrophobicity is higher and the solute is well dissolved in an octanol phase.
For example, the logP value can be determined using a flask shaking method using the solute and two types of solvents being actually placed in a flask and mixed by shaking the flask well, or a HPLC method using a high performance liquid chromatography (HPLC).

[1] = octanol/water, logP value, octanol/water system

| SMILES | logP [1] | other results |
| --- | --- | --- |
| CCC(O)CO (stereo not shown) [1,2-butanediol] | -0.32 | – |
| CCCCC(O)CO (stereo not shown) [1,2-hexanediol] | 0.5 | – |
| CCCC(O)CO (stereo not shown) [1,2-pentanediol] | 0.01 | – |
| CCC(O)CCO (stereo not shown) [1,3-pentanediol] | -0.16 | – |
| OCCCO [1,3-propanediol] | – | logP value (octanol/water system): −1.33 |
| OCCCCO [1,4-butanediol] | – | logP: 0.5; logP value: 0.50 |
| CCCC(=O)OCC(O)CO (stereo not shown) [1-butanoyl glycerol] | 0 | – |
| CC(C)C(O)C(C)(C)CO (stereo not shown) [2,2,4-trimethyl-1,3-pentanediol] | – | logP: 2 |
| CC(C)(CO)CO [2,2-dimethyl-1,3-propanediol] | -0.3 | – |
| CC(O)C(C)O (stereo not shown) [2,3-butanediol] | – | logP: -0.36 |
| CC(C)(O)CCC(C)(C)O [2,5-dimethyl-2,5-hexanediol] | 1.53 | – |
| CC(O)CCC(C)O (stereo not shown) [2,5-hexanediol] | 0.62 | – |
| CCCCC(CC)(CO)CO [2-butyl-2-ethyl-1,3-propanediol] | 2.1 | – |
| CC(C)(O)CO [2-methyl-1,2-propanediol] | 0.026 | – |
| CC(CO)CO [2-methyl-1,3-propanediol] | -0.6 | – |
| CC(O)CC(C)(C)O (stereo not shown) [2-methyl-2,4-pentanediol] | 0.88 | – |
| CC(C)(O)CCO [3-methyl-1,3-butanediol] | -0.33 | – |
| CC(CCO)CCO [3-methyl-1,5-pentanediol] | -0.2 | – |
| OCC(O)CO [glycerin] | – | logP value (octanol/water system): −2.70 |
| CC(O)CO (stereo not shown) [propylene glycol] | -0.92 | – |
| CCC(CO)(CO)CO [trimethylol propane] | – | logP value (octanol/water system): −0.47 |
